Like-named read-outs stand apart in the source and are kept apart here.

In data set [1] the target is T1, LRRK2 full-length human recombinant protein (Homo sapiens, UniProt Q5S007).
T1 construct: express LRRK2 full-length human recombinant protein in Sf9 cells of insects; GST; made in house; host or cells: Sf9 insect cells (baculovirus)
The experiment in a line: In vitro evaluation of LRRK2 kinase inhibitory activity (HTRF / TR-FRET, LRRKtide). It is filed as biochemical. The settings on record: 57 μM ATP, 0.4 uM Fluorescein-ERM (LRRKtide) peptide. Here is the method: Experimental purpose: to detect transfer of energy signals (ratio of fluorescence signals: […]) after the phosphate group of phosphorylated Fluorescein-ERM (LRRKtide) peptide binds with LanthaScreen® Tb-pERM (pLRRKtide) antibody using homogeneous time-resolved fluorescence. Calculate IC50 for LRRK2 inhibition of the compound to be assayed.
1. Reaction solution: 10 mM 4-(2-hydroxyethyl) piperazine-1-ethanesulfonic acid (pH 7.5); 2 mM magnesium chloride; 0.5 mM glycol-bis-(2-aminoethylether)-N; 0.002% primary alcohol ethoxylate, 1 mM dithiothreitol and 1% DMSO;
2. Assay solution: TR-FRET Dilution Buffer;
3. LRRK2 human recombinant protein: use GST tag and baculovirus to express LRRK2 full-length human recombinant protein in Sf9 cells of insects;
4. Substrate: 0.4 uM Fluorescein-ERM (LRRKtide) peptide; 57 uM ATR
Resonance energy transfer of Fluorescein-ERM (LRRKtide) peptide and LanthaScreen® Tb-pERM (pLRRKtide) antibody between […].
1. Add DMSO solution of the compound to be assayed through the Echo550 non-contact nano-liter acoustic droplet ejection system;
2. Prepare mixed solution of enzyme and polypeptide with freshly prepared reaction solution. Add the mixed solution to the reaction cavity and warm it up at room temperature for 20 minutes in advance;
3. Add 57 μM ATP to initiate reaction, which lasts for 90 minutes at room temperature;
4. Add fluorescein-ERM (LRRKtide) peptide, LanthaScreen® Tb-pERM (pLRRKtide) antibody and 10 mM ethylene diamine tetraacetic acid to the assay system. The reaction lasts for 60 minutes at room temperature. Detect yellow light signals with Em/Ex 520/485.
5. Measure enzyme activity inhibition relative to DMSO blank control group according to the signal ratio, and calculate IC50 by fitting curves with the software XLfit5.

Data set [2] can be described thus: Pharmacokinetic evaluation in C57BL/6 mice, brain tissues and plasma. In kind it is in vivo. To be noted: oral, 5 mg/kg. Here is the method: Experimental purpose: to study pharmacokinetics of the compounds in vivo in C57BL/6 mice—drug concentration ratio between brain tissues and plasma
Experimental materials: C57BL/6 mice (male, 8 weeks old, weight: 25 g-30 g)
Assay Pharmacokinetic Features of Glires after they are Orally Administered the Compounds According to Standard Schemes.
In the experiment, the candidate compounds are prepared into 1 mg/mL mixed suspension, and mice are orally administered once. The menstruum for oral administration is 10% dimethyl sulfoxide (DMSO)/10% polysorbate/20% PEG-400 aqueous solution. This project uses male C57BL/6 mice, which are orally administered drugs at a dose of 5 mg/kg. Collect the whole brain 0.5, 1, 2 and 4 hours after the administration. Homogenize tissue samples with 15 mM [[…] (pH=7.4) buffer and methanol (volume ratio: 2:1)] at a ratio of 1:5 (w:v). Equally divide the homogenate into 2 samples: one for assay and the other for standby use. Besides, collect plasma 0.5, 1, 2 and 4 hours after administration. Centrifugate with 3,000 g relative centrifugal force within half an hour after collection at about 4° C. for 15 minutes to separate supernatant and obtain plasma samples. Store the plasma samples in polypropylene tubes; rapidly freeze them on dry ice and keep them at −80° C. till LC/MS/MS assay. Add internal standard precipitated protein of acetonitrile solution and fully mix them to extract supernatant samples via centrifugation. Quantitatively analyze plasma concentration by LC-MS/MS assay and calculate pharmacokinetic parameters such as maximal concentration (Cmax), half-life (T1/2), maximal time (Tmax), drug concentration in different tissues after administration (AUC0-last), and drug concentration ratio between brain tissues and plasma (B/P).

In a further data set the target is T2, LRRK2 (pSer935) (Homo sapiens, UniProt Q5S007).
T2 construct: expressed in transfected cells; host or cells: 293T cells
The experiment in a line: In vitro evaluation of inhibitory activity for LRRK2 cell (pSer935), 293T cells transfected with pcmv-flag-lrrk2, MSD. In kind it is cell-based. Here is the method: Take 293T cells out of liquid nitrogen and put them in water at 37° C. After ice has fully thawed, transfer the cells to 5 mL warm culture medium. Discard the supernatant through centrifugation, and culture the suspended cells in the culture medium as new cells.
Culture the 293T cells in the culture medium for two to three days.
Plant 1.4×10^6/293T cells on a culture plate. After two days of culturing, cells will multiply to 5×10^6, so planting cells on N+1 plates is enough for performing experiments on N 96-well plates.
1) Add 5 μl (0.5 μg/μl) pcmv-flag-Irrk2 to 145 μl DMEM culture medium, and mix them evenly with a straw;
6) Incubate the culture plate inside a humidified incubator with 5% carbon dioxide for 20 to 24 hours at 37° C.
3. (Day 3) Plant the 293T Cells on the 96-Well Plate;
3) Transfer 50 μl inhibitor containing culture medium to the cell culture plate;
4) Incubate the culture plate inside a humidified incubator with 5% carbon dioxide for 20 to 24 hours at 37° C.;
5) Extract 300 μl inhibitor containing culture medium with a dropper. Take 200 μl inhibitor containing culture medium and add 100 μl decomposer into the culture medium. After the plate has been sealed, it shall be shaken for 30 minutes at 4° C.
1) Add 2 μg/25 μl labeled antibody to the MSD plate to incubate for 2 hours; (50 μl 3.9 μg/μl Flag antibody+2.5 ml fetal bovine serum per plate). Maintain centrifugation for 10 s (1,000 rpm);
5) Transfer 12.5 μl lysis buffer and 12.5 μl cell lysis buffer to the MSD plate to incubate for 1 hour at room temperature;
7) Dilute ps935 antibody at 1:200, and add 25 μl antibody to incubate for 1 hour;
9) Dilute goat anti-rabbit antibody at 1:500, and add 25 μl antibody to the incubation plate to incubate for 1 hour;
13) After incubation for about 3 minutes, read data over 15 minutes.

Data set [3] concerns LRRK2 phosphorylation in brain tissues. The experiment in a line: In vivo pharmacological experiment: LRRK2 phosphorylation in brain tissues of mice (western blot). Details: species or system C57BL/6J mice. The settings on record: oral, 10 mg/kg, once, 1 hour after administration. On the technique in general: Immunoblotting shows a protein as a band on a membrane.
Procedure: Animals: C57BL/6J mice (male, 6-7 weeks old, weight: 20 g-22 g).
Grouping: Weigh all mice one day ahead of the experiment and divide them into 6 groups at random according to their weight, with 4 mice in each group. Exclude too heavy and too light mice, to ensure that average weight of all groups is the same.
The animals of each group are orally administered menstruum or the compound to be assayed in chronological order as shown in Table 4. One mouse is administered every 2 minutes. 1 hour after administration, all animals are successively euthanized with carbon dioxide in chronological order.
(1) After protein determination of brain tissue samples by BCA, apply 4% to 15% precast gel in an equal amount of protein samples.
(3) Perform protein electrophoresis at 200 V for 30 minutes. Then, use Midi PVDF Transfer Packs for membrane transfer for 7 minutes. Next, block them with TBS Blocker at room temperature for 1 hour.
(4) Prepare 5% milk with skimmed milk powder. Then, formulate antibodies P-LRRK2 (add 20 μl antibody to 5 mL 5% milk at 1:250), total-LRRK2 (add 10 μl antibody to 5 ml 5% skimmed milk at 1:500), p-Rabl0 (add 10 μl antibody to 5 mL 5% skimmed milk at 1:500) and p-actin (add 5 μl antibody to 5 mL 5% milk at 1:1000), and incubate the antibodies overnight. (5) Recycle the primary antibodies and rinse membranes with TBS for three times, 10 minutes each time. […]

T1 sequence (Q5S007 whole entry): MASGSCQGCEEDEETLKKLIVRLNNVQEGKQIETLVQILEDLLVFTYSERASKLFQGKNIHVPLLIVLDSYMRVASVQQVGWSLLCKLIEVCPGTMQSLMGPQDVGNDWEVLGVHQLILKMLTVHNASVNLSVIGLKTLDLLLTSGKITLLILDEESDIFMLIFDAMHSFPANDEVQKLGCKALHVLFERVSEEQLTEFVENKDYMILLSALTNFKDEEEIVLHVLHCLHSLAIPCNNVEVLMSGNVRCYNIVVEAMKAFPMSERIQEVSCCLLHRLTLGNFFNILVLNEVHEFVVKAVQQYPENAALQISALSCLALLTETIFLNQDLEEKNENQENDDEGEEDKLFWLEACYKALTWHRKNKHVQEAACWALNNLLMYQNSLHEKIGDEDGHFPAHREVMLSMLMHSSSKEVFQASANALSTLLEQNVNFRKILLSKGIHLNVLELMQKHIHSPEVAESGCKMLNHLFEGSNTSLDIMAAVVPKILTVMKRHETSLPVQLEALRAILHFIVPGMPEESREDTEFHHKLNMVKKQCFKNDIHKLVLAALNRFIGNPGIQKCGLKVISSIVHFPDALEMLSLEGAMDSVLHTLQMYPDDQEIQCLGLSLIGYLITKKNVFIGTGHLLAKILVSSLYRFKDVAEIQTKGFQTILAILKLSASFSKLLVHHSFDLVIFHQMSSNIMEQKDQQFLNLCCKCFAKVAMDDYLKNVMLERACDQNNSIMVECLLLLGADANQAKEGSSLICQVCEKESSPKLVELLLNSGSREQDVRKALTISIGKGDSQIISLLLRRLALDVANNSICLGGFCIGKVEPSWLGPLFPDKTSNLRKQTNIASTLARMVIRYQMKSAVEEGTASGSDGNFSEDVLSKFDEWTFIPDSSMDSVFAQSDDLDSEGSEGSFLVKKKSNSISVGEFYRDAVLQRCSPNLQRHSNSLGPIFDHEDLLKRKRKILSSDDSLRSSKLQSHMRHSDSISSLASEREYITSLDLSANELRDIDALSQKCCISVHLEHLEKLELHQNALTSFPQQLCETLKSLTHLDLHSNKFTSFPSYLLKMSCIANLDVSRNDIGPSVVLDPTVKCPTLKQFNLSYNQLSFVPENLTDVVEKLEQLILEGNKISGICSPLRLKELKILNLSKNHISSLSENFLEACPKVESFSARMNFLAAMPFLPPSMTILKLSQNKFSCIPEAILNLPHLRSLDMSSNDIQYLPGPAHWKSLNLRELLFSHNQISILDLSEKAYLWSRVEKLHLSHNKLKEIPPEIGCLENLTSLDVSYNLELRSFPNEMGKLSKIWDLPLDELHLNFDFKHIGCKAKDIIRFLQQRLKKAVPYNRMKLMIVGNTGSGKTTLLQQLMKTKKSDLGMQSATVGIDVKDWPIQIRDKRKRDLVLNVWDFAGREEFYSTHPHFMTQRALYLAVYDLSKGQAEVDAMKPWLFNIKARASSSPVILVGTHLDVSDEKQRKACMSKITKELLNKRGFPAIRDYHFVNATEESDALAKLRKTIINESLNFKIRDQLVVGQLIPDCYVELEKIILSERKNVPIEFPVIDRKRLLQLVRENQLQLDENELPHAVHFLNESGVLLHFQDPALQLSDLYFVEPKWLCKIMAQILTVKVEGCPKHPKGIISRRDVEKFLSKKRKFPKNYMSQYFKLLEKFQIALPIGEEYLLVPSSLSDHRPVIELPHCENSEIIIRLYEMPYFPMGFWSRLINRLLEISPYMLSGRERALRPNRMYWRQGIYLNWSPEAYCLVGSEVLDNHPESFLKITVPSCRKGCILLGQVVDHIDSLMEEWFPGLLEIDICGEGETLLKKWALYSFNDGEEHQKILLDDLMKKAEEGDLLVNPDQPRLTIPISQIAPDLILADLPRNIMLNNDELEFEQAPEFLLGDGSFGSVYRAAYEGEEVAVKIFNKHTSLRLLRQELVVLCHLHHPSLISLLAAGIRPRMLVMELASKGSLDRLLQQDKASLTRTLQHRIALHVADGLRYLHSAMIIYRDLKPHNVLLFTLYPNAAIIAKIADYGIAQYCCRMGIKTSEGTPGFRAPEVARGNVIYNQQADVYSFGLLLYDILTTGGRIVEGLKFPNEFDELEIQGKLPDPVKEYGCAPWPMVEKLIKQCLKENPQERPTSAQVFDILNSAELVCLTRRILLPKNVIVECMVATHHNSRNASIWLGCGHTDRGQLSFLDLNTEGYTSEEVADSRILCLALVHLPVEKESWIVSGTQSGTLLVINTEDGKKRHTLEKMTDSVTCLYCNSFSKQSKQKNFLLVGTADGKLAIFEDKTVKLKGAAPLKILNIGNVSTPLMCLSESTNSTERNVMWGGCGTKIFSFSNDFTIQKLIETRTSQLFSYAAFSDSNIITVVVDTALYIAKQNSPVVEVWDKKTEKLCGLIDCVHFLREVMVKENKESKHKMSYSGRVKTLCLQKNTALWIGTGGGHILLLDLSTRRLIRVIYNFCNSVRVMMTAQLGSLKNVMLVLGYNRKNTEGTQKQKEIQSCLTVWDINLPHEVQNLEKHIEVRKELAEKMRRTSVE
T2 sequence (Q5S007 whole entry): as above

By IC50 is commonly meant the concentration that gives 50% inhibition. Broadly, the Tmax is the time at which the peak concentration occurs. As usually defined, the Cmax is the highest concentration seen after dosing. As to `COc1nc(N2CC3(COC3)C2)ccc1Nc1ncc(Cl)c(Nc2ccccc2P(C)(C)=O)n1` [Embodiment 12], the IC50 is 1.6 nM in data set [1] and 3.7 nM against LRRK2 (pSer935). In addition, in data set [2] (male, C57BL/6, mouse, brain/plasma, read-out: drug concentration ratio between brain tissues and plasma (B/P)), the Kp worked out at 0.14. In addition, the AUC(0-t) turned out to be 0.476 µM·h in data set [2] (male, C57BL/6, mouse, brain tissues, read-out: AUC0-last Brain Tissues) and 3.46 µM·h in data set [2] (male, C57BL/6, mouse, plasma, read-out: AUC0-last Plasma). In addition, the half-life in data set [2] (male, C57BL/6, mouse, brain tissues, read-out: T1/2 Brain Tissues (converted)) was 23.4 min; in data set [2] (male, C57BL/6, mouse, plasma, read-out: T1/2 Plasma (converted)), 36 min. Besides, the Tmax is 30 min in data set [2] (male, C57BL/6, mouse, brain tissues, read-out: Tmax Brain Tissues) and 30 min in data set [2] (male, C57BL/6, mouse, plasma, read-out: Tmax Plasma). Further, the Cmax in data set [2] (male, C57BL/6, mouse, plasma) was found to be 3.63 µM. For the same compound, in data set [2] (brain tissues), the “Cmax Brain Tissues” value amounted to 0.576 µM.
Regarding `CCNc1nc(Nc2cc(F)c(C(=O)N3CCOCC3)cc2OC)ncc1C(F)(F)F` [GNE-7915], in data set [3], the “inhibition of LRRK2 phosphorylation in brain tissues” value is given as “inhibits FRRK2 phosphorylation”.

(Values after US11046720B2, “Dimethylphosphine oxide compound” (GUIZHOU INOCHINI TECHNOLOGY CO., LTD, priority 2018, dated 2021).)
